Among the data in ChEMBL document CHEMBL3046039, “In vivo antidiabetic activity and in silico studies on adenosine monophosphate-activated protein kinase (AMPK) of (2E,5E)-2,5-bis(4-hydroxy-3-methoxybenzylidene) cyclopentanone” (2013) are Activity and inhibition values, retold here.

Calls of active or inactive are those of the source. No cut-off for these calls is given here.

The subject of test [1] is Rattus norvegicus. Description: Increase in sucrose tolerance in fasted normoglycemic Wistar Rattus norvegicus (rat) assessed as reduction in serum glucose level at 7 mg/kg, po measured at 30-120 min post-sucrose challenge by oral sucrose tolerance test. Also noted: dose 7 mg/kg. The format is functional, organism-based.
Test [2] has as its system Rattus norvegicus. Kind of test: Increase in glucose tolerance in fasted normoglycemic Wistar Rattus norvegicus (rat) assessed as suppression of blood glucose AUC at 10 mg/kg, po measured at 30-120 min post-glucose challenge by oral glucose tolerance test. The test is classed as functional, organism-based. Also noted: dose 10 mg/kg.
The subject of test [3] is Rattus norvegicus. Description: In vivo antidiabetic activity in streptozotocin-induced diabetic Wistar Rattus norvegicus (rat) assessed as serum LDL-cholesterol level at 0.5 mg/kg, po for 7 days by spectrophotometric analysis (reference value: 80.75 +/-3.4 mg/dl). The format is functional.
Test [4] relates to Rattus norvegicus. Kind of test: In vivo antidiabetic activity in streptozotocin-induced diabetic Wistar Rattus norvegicus (rat) assessed as serum triglyceride level at 0.5 mg/kg, po for 7 days by spectrophotometric analysis (reference value: 128.77 +/-6.3 mg/dl). The format is functional.
The subject of test [5] is Rattus norvegicus. Description: In vivo antidiabetic activity in streptozotocin-induced diabetic Wistar Rattus norvegicus (rat) assessed as reduction in serum glucose level at 0.5 mg/kg, po for 7 days measured at 30 to 120 min post-glucose challenge by oral glucose tolerance test. The test is classed as functional, organism-based. More on the design: dose 0.5 mg/kg.
Test [6] has as its system Rattus norvegicus. Description: In vivo antidiabetic activity in streptozotocin-induced diabetic Wistar Rattus norvegicus (rat) assessed as serum HDL-cholesterol level at 0.5 mg/kg, po for 7 days by spectrophotometric analysis (reference value: 17.52 +/-2.1 mg/dl). The test is classed as functional.
Test [7] deals with Rattus norvegicus. Kind of test: In vivo antidiabetic activity in streptozotocin-induced diabetic Wistar Rattus norvegicus (rat) assessed as serum total cholesterol level at 0.5 mg/kg, po for 7 days by spectrophotometric analysis (reference value: 126.62 +/-4.7 mg/dl). The format is functional.
The subject of test [8] is Rattus norvegicus. Description: In vivo antidiabetic activity in streptozotocin-induced diabetic Wistar Rattus norvegicus (rat) assessed as serum VLDL-cholesterol level at 0.5 mg/kg, po for 7 days by spectrophotometric analysis (reference value: 28.12 +/-1.5 mg/dl). The test is classed as functional.
The test system of test [9] is Rattus norvegicus. Description: In vivo antidiabetic activity in streptozotocin-induced diabetic Wistar Rattus norvegicus (rat) assessed as reduction in serum glucose level at 10 mg/kg, po measured after 4 hr by glucose oxidase method. The test is classed as functional, organism-based. More on the design: dose 10 mg/kg.
In test [10] the test system is Rattus norvegicus. Kind of test: Increase in sucrose tolerance in fasted normoglycemic Wistar Rattus norvegicus (rat) assessed as reduction in serum glucose level at 25 mg/kg, po measured at 30-120 min post-sucrose challenge by oral sucrose tolerance test. The format is functional, organism-based. More on the design: dose 25 mg/kg.
Test [11] relates to Rattus norvegicus. Description: In vivo antidiabetic activity in streptozotocin-induced diabetic Wistar Rattus norvegicus (rat) assessed as reduction in serum glucose level at 25 mg/kg, po measured after 2 to 4 hr by glucose oxidase method. The format is functional, organism-based. Also noted: dose 25 mg/kg.
Test [12] has as its system Rattus norvegicus. Kind of test: Increase in glucose tolerance in fasted normoglycemic Wistar Rattus norvegicus (rat) assessed as suppression of blood glucose AUC at 25 mg/kg, po measured at 30-120 min post-glucose challenge by oral glucose tolerance test. More on the design: dose 25 mg/kg. The test is classed as functional, organism-based.
Test [13] relates to Rattus norvegicus. Description: In vivo antidiabetic activity in streptozotocin-induced diabetic Wistar Rattus norvegicus (rat) assessed as reduction in serum glucose level at 25 mg/kg, po for 7 days measured at 30 to 120 min post-glucose challenge by oral glucose tolerance test. The format is functional, organism-based. More on the design: dose 25 mg/kg.
Test [14] has as its system Rattus norvegicus. Kind of test: In vivo antidiabetic activity in streptozotocin-induced diabetic Wistar Rattus norvegicus (rat) assessed as serum LDL-cholesterol level at 25 mg/kg, po for 7 days by spectrophotometric analysis (reference value: 80.75 +/-3.4 mg/dl). The test is classed as functional.
Test [15] concerns Rattus norvegicus. Description: In vivo antidiabetic activity in streptozotocin-induced diabetic Wistar Rattus norvegicus (rat) assessed as serum triglyceride level at 25 mg/kg, po for 7 days by spectrophotometric analysis (reference value: 128.77 +/-6.3 mg/dl). The format is functional.
In test [16] the test system is Rattus norvegicus. Description: In vivo antidiabetic activity in streptozotocin-induced diabetic Wistar Rattus norvegicus (rat) assessed as serum total cholesterol level at 25 mg/kg, po for 7 days by spectrophotometric analysis (reference value: 126.62 +/-4.7 mg/dl). The format is functional.
Test [17] deals with Rattus norvegicus. Description: In vivo antidiabetic activity in streptozotocin-induced diabetic Wistar Rattus norvegicus (rat) assessed as serum HDL-cholesterol level at 25 mg/kg, po for 7 days by spectrophotometric analysis (reference value: 17.52 +/-2.1 mg/dl). The test is classed as functional.
Test [18] deals with Rattus norvegicus. Kind of test: In vivo antidiabetic activity in streptozotocin-induced diabetic Wistar Rattus norvegicus (rat) assessed as serum VLDL-cholesterol level at 25 mg/kg, po for 7 days by spectrophotometric analysis (reference value: 28.12 +/-1.5 mg/dl). The test is classed as functional.

For the compound `C[C@H]1O[C@H](O[C@H]2[C@H](O)[C@@H](O)[C@@H](O[C@H]3[C@H](O)[C@@H](O)C(O)O[C@@H]3CO)O[C@@H]2CO)[C@H](O)[C@@H](O)[C@@H]1N[C@H]1C=C(CO)[C@@H](O)[C@H](O)[C@H]1O` (stereo partly drawn), in the test with Rattus norvegicus [1], the result was Active.
For `COc1ccc(Cl)cc1C(=O)NCCc1ccc(S(=O)(=O)NC(=O)NC2CCCCC2)cc1` [GLYBURIDE], in the test on Rattus norvegicus [2], the outcome was Active. Besides, the Activity in the test with Rattus norvegicus [3] was 39.5 mg/dL; in the test on Rattus norvegicus [4] it was 87.4 mg/dL; in the test on Rattus norvegicus [6] it was 27.3 mg/dL; in the test with Rattus norvegicus [7] it was 81.9 mg/dL; in the test on Rattus norvegicus [8], 19.4 mg/dL. Also, the inhibition result with Rattus norvegicus [5] and in the test with Rattus norvegicus [9] was “Active” each time.
Consider `COc1cc(/C=C2\CC/C(=C\c3ccc(O)c(OC)c3)C2=O)ccc1O`, for which the outcome in the test with Rattus norvegicus [10] and in the test on Rattus norvegicus [12] was Active. For the same compound, the inhibition result with Rattus norvegicus [11] and with Rattus norvegicus [13] was “Active” in each case. Also, the Activity worked out at 25.4 mg/dL in the test on Rattus norvegicus [14]; 81.9 mg/dL in the test with Rattus norvegicus [15]; 80.41 mg/dL with Rattus norvegicus [16]; 26.03 mg/dL with Rattus norvegicus [17]; 20.98 mg/dL in the test with Rattus norvegicus [18].
